Laboratory results from paper PMC6979384, “Characterization of the plant homeodomain (PHD) reader family for their histone tail interactions” (Epigenetics & Chromatin, 2020).

Tests used:
Assay in all cases: Histone peptide microarray
Assay type in all cases: binding, human
AIRE (PP) = conditions: sheet "Array Heatmap"; GST-tagged AIRE (PP); arrays performed twice, total replicate number n = 4
In short: (§1)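 Using an optimized microarray protocol, purified GST-tagged PHD fingers were incubated at 0.5 μM on 293 histone peptides with single or multiple modifications, and array signal was recorded as the average of 4 replicates.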

BAZ2B = conditions: sheet "Array Heatmap"; GST-tagged BAZ2B; arrays performed twice, total replicate number n = 4
In short: as §1

BPTF (PB) = conditions: sheet "Array Heatmap"; GST-tagged BPTF (PB); arrays performed twice, total replicate number n = 4
In short: as §1

CHD4 (PPCC) = conditions: sheet "Array Heatmap"; GST-tagged CHD4 (PPCC); arrays performed twice, total replicate number n = 4
In short: as §1

CHD5 (PCC) = conditions: sheet "Array Heatmap"; GST-tagged CHD5 (PCC); arrays performed twice, total replicate number n = 4
In short: as §1

CHD5 (PPCC) = conditions: sheet "Array Heatmap"; GST-tagged CHD5 (PPCC); arrays performed twice, total replicate number n = 4
In short: as §1

DIDO1 = conditions: sheet "Array Heatmap"; GST-tagged DIDO1; arrays performed twice, total replicate number n = 4
In short: as §1

DPF2 (PPC2W2) = conditions: sheet "Array Heatmap"; GST-tagged DPF2 (PPC2W2); arrays performed twice, total replicate number n = 4
In short: as §1

ING1 = conditions: sheet "Array Heatmap"; GST-tagged ING1; arrays performed twice, total replicate number n = 4
In short: as §1

ING2 = conditions: sheet "Array Heatmap"; GST-tagged ING2; arrays performed twice, total replicate number n = 4
In short: as §1

ING3 = conditions: sheet "Array Heatmap"; GST-tagged ING3; arrays performed twice, total replicate number n = 4
In short: as §1

ING4 = conditions: sheet "Array Heatmap"; GST-tagged ING4; arrays performed twice, total replicate number n = 4
In short: as §1

ING5 = conditions: sheet "Array Heatmap"; GST-tagged ING5; arrays performed twice, total replicate number n = 4
In short: as §1

KDM4C (TTP) = conditions: sheet "Array Heatmap"; GST-tagged KDM4C (TTP); arrays performed twice, total replicate number n = 4
In short: as §1

KDM5A (1) = conditions: sheet "Array Heatmap"; GST-tagged KDM5A (1); arrays performed twice, total replicate number n = 4
In short: as §1

KDM5A (3) = conditions: sheet "Array Heatmap"; GST-tagged KDM5A (3); arrays performed twice, total replicate number n = 4
In short: as §1

KDM5B (1) = conditions: sheet "Array Heatmap"; GST-tagged KDM5B (1); arrays performed twice, total replicate number n = 4
In short: as §1

KDM5B (3) = conditions: sheet "Array Heatmap"; GST-tagged KDM5B (3); arrays performed twice, total replicate number n = 4
In short: as §1

KDM7A = conditions: sheet "Array Heatmap"; GST-tagged KDM7A; arrays performed twice, total replicate number n = 4
In short: as §1

MLL5 = conditions: sheet "Array Heatmap"; GST-tagged MLL5; arrays performed twice, total replicate number n = 4
In short: as §1

MORC3 (CW) = conditions: sheet "Array Heatmap"; GST-tagged MORC3 (CW); arrays performed twice, total replicate number n = 4
In short: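 Purified PHD finger domains fused to GST are screened against 293 synthetic histone peptides bearing one or several post-translational modifications. The protein is used at 0.5 μM, and the signal from four replicate arrays is averaged, with standard deviation given.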

PHF13 = conditions: sheet "Array Heatmap"; GST-tagged PHF13; arrays performed twice, total replicate number n = 4
In short: as §1

PHF21A = conditions: sheet "Array Heatmap"; GST-tagged PHF21A; arrays performed twice, total replicate number n = 4
In short: as §1

PHF23 = conditions: sheet "Array Heatmap"; GST-tagged PHF23; arrays performed twice, total replicate number n = 4
In short: as §1

PHF2 = conditions: sheet "Array Heatmap"; GST-tagged PHF2; arrays performed twice, total replicate number n = 4
In short: as §1

PHF8 = conditions: sheet "Array Heatmap"; GST-tagged PHF8; arrays performed twice, total replicate number n = 4
In short: as §1

PHRF1 (RP) = conditions: sheet "Array Heatmap"; GST-tagged PHRF1 (RP); arrays performed twice, total replicate number n = 4
In short: as §1

RAG2 = conditions: sheet "Array Heatmap"; GST-tagged RAG2; arrays performed twice, total replicate number n = 4
In short: as §1

SP140L = conditions: sheet "Array Heatmap"; GST-tagged SP140L; arrays performed twice, total replicate number n = 4
In short: as §1

TAF3 = conditions: sheet "Array Heatmap"; GST-tagged TAF3; arrays performed twice, total replicate number n = 4
In short: as §1

TRIM66 (PB) = conditions: sheet "Array Heatmap"; GST-tagged TRIM66 (PB); arrays performed twice, total replicate number n = 4
In short: as §1

| Substance | Array Heatmap signal, AIRE (PP) (AIRE (PP)) | Array Heatmap signal, BAZ2B (BAZ2B) | Array Heatmap signal, BPTF (PB) (BPTF (PB)) | Array Heatmap signal, CHD4 (PPCC) (CHD4 (PPCC)) | Array Heatmap signal, CHD5 (PCC) (CHD5 (PCC)) | Array Heatmap signal, CHD5 (PPCC) (CHD5 (PPCC)) | Array Heatmap signal, DIDO1 (DIDO1) | Array Heatmap signal, DPF2 (PPC2W2) (DPF2 (PPC2W2)) | Array Heatmap signal, ING1 (ING1) | Array Heatmap signal, ING2 (ING2) | Array Heatmap signal, ING3 (ING3) | Array Heatmap signal, ING4 (ING4) | Array Heatmap signal, ING5 (ING5) | Array Heatmap signal, KDM4C (TTP) (KDM4C (TTP)) | Array Heatmap signal, KDM5A (1) (KDM5A (1)) | Array Heatmap signal, KDM5A (3) (KDM5A (3)) | Array Heatmap signal, KDM5B (1) (KDM5B (1)) | Array Heatmap signal, KDM5B (3) (KDM5B (3)) | Array Heatmap signal, KDM7A (KDM7A) | Array Heatmap signal, MLL5 (MLL5) | also measured |
| --- | --- | --- | --- | --- | --- | --- | --- | --- | --- | --- | --- | --- | --- | --- | --- | --- | --- | --- | --- | --- | --- |
| H3.3 30-49: H3.3 30-49 | 0.4614 | 0.4498 | 0.3385 | 0.5572 | 0.7506 | 0.5477 | 0.5964 | 0.6135 | 0.4817 | 0.5868 | 0.4515 | 0.4627 | 0.3551 | 0.523 | 0.4724 | 0.3975 | 0.6846 | 0.4643 | 0.4094 | 0.5124 | Array Heatmap signal, MORC3 (CW) (MORC3 (CW)): 0.3401; Array Heatmap signal, PHF13 (PHF13): 0.586; Array Heatmap signal, PHF21A (PHF21A): 0.447; Array Heatmap signal, PHF23 (PHF23): 0.5238; Array Heatmap signal, PHF2 (PHF2): 0.404; Array Heatmap signal, PHF8 (PHF8): 0.3443; Array Heatmap signal, PHRF1 (RP) (PHRF1 (RP)): 0.4134; Array Heatmap signal, RAG2 (RAG2): 0.2343; Array Heatmap signal, SP140L (SP140L): 0.3561; Array Heatmap signal, TAF3 (TAF3): 0.2689; Array Heatmap signal, TRIM66 (PB) (TRIM66 (PB)): 0.5248 |
| H3.3 75-94: H3.3 120-135 | 0.502 | 0.4527 | 0.3448 | 0.5423 | 0.7355 | 0.563 | 0.6416 | 0.6426 | 0.5031 | 0.5986 | 0.473 | 0.4549 | 0.3621 | 0.5145 | 0.468 | 0.454 | 0.6676 | 0.4774 | 0.3506 | 0.5079 | Array Heatmap signal, MORC3 (CW) (MORC3 (CW)): 0.3704; Array Heatmap signal, PHF13 (PHF13): 0.6071; Array Heatmap signal, PHF21A (PHF21A): 0.449; Array Heatmap signal, PHF23 (PHF23): 0.5259; Array Heatmap signal, PHF2 (PHF2): 0.46; Array Heatmap signal, PHF8 (PHF8): 0.3469; Array Heatmap signal, PHRF1 (RP) (PHRF1 (RP)): 0.4716; Array Heatmap signal, RAG2 (RAG2): 0.2477; Array Heatmap signal, SP140L (SP140L): 0.3784; Array Heatmap signal, TAF3 (TAF3): 0.2603; Array Heatmap signal, TRIM66 (PB) (TRIM66 (PB)): 0.5407 |
